Experimental data: ChEMBL document CHEMBL1153555, “Molecular mechanism of target recognition by subtilin, a class I lanthionine antibiotic” (Antimicrob Agents Chemother, 2008)
≈ marks a conversion by molar mass, not a printed value.

Experiments:
Lactococcus lactis = experiment: Antibacterial activity against Lactococcus lactis MG1614 by disk diffusion assay; type: functional
[1] = Permeability across Micrococcus luteus ATCC 4698 lipid II-containing unilamellar vesicle of 1,2-dioleoyl-sn-gltcero-3-phosphocholine and 1,2-dioleoyl-sn-glycero-3-phosphoglycerol assessed as partial leakage after disintegration of vesicles at lower concentration by carboxyfluorescein leakage assay; type: ADME

Row | Compound | MIC (Lactococcus lactis) | permeability [1]
1 | C=C1NC(=O)[C@H](CCC(=O)O)NC(=O)[C@H](NC(=O)[C@@H](N)CCCCN)CSC[C@@H](C(=O)N[C@H]2C(=O)N3CCC[C@H]3C(=O)NCC(=O)N[C@H](C(=O)N[C@H](C(=O)N[C@H]3C(=O)NCC(=O)N[C@@H](C)C(=O)N[C@@H](CC(C)C)C(=O)N[C@@H](CCC(N)=O)C(=O)N/C(=C\C)C(=O)N[C@H](C(=O)N[C@@H](Cc4ccccc4)C(=O)N[C@@H](CC(C)C)C(=O)N[C@@H](CCC(N)=O)C(=O)N[C@H]4C(=O)N[C@@H](CC(C)C)C(=O)N[C@H]5C(=O)N[C@@H](CS[C@H]4C)C(=O)N[C@@H](CC(N)=O)C(=O)N[C@H](C(=O)N[C@@H](CCCCN)C(=O)O)CS[C@H]5C)CS[C@H]3C)C(C)C)CS[C@H]2C)NC(=O)[C@H](CC(C)C)NC1=O | > 50 µg/mL | 
2 | C=C(NC(=O)[C@@H](NC(=O)[C@H](CCCCN)NC(=O)[C@@H]1CS[C@@H](C)[C@H]2NC(=O)[C@H](CC(C)C)NC(=O)[C@H](NC(=O)[C@H](CCC(N)=O)NC(=O)[C@H](CC(C)C)NC(=O)[C@H](Cc3ccccc3)NC(=O)[C@@H]3CS[C@@H](C)[C@@H](NC(=O)[C@@H](NC(=O)[C@@H]4CS[C@@H](C)[C@@H](NC(=O)[C@@H]5CSC[C@@H](NC(=O)[C@H](CCCCN)NC(=O)[C@H](Cc6c[nH]c7ccccc67)NC(=O)CCC(=O)O)C(=O)N[C@@H](CCC(=O)O)C(=O)NC(=C)C(=O)N[C@@H](CC(C)C)C(=O)N5)C(=O)N5CCC[C@H]5C(=O)NCC(=O)N4)C(C)C)C(=O)NCC(=O)N[C@@H](C)C(=O)N[C@@H](CC(C)C)C(=O)N[C@@H](CCC(N)=O)C(=O)N/C(=C\C)C(=O)N3)[C@H](C)SC[C@H](NC2=O)C(=O)N[C@@H](CC(N)=O)C(=O)N1)[C@@H](C)CC)C(=O)N[C@@H](CCCCN)C(=O)O | 19.2 µg/mL (≈ 5.6 µM) | 
3 | C=C(NC(=O)[C@@H](NC(=O)[C@H](CCCCN)NC(=O)[C@@H]1CS[C@@H](C)[C@H]2NC(=O)[C@H](CC(C)C)NC(=O)[C@H](NC(=O)[C@H](CCC(N)=O)NC(=O)[C@H](CC(C)C)NC(=O)[C@H](Cc3ccccc3)NC(=O)[C@@H]3CS[C@@H](C)[C@@H](NC(=O)[C@@H](NC(=O)[C@@H]4CS[C@@H](C)[C@@H](NC(=O)[C@@H]5CSC[C@@H](NC(=O)[C@H](CCCCN)NC(=O)[C@@H](N)Cc6c[nH]c7ccccc67)C(=O)N[C@@H](CCC(=O)O)C(=O)NC(=C)C(=O)N[C@@H](CC(C)C)C(=O)N5)C(=O)N5CCC[C@H]5C(=O)NCC(=O)N4)C(C)C)C(=O)NCC(=O)N[C@@H](C)C(=O)N[C@@H](CC(C)C)C(=O)N[C@@H](CCC(N)=O)C(=O)N/C(=C\C)C(=O)N3)[C@H](C)SC[C@H](NC2=O)C(=O)N[C@@H](CC(N)=O)C(=O)N1)[C@@H](C)CC)C(=O)N[C@@H](CCCCN)C(=O)O [SUBTILIN] |  | 20%

Now from value to compound:

Row | MIC (Lactococcus lactis) | permeability [1] | Compound
4 | 11.5 µg/mL (≈ 3.82 µM) |  | C=C1NC(=O)CC[C@@H](C(=O)O)NC(=O)[C@H](NC(=O)[C@H](CCCCN)NC(=O)[C@@H](N)Cc2c[nH]c3ccccc23)CSC[C@@H](C(=O)N[C@@H]2C(=O)N3CCC[C@H]3C(=O)NCC(=O)N[C@H](C(=O)N[C@H](C(=O)N[C@@H]3C(=O)NCC(=O)N[C@@H](C)C(=O)N[C@@H](CC(C)C)C(=O)N[C@@H](CCC(N)=O)C(=O)N/C(=C/C)C(=O)N[C@H](C(=O)N[C@@H](Cc4ccccc4)C(=O)N[C@@H](CC(C)C)C(=O)N[C@@H](CCC(N)=O)C(=O)N[C@@H]4C(=O)N[C@@H](CC(C)C)C(=O)N[C@H]5C(=O)N[C@@H](CSC4C)C(=O)NC(=O)[C@H](CC(N)=O)N[C@H](C(=O)N[C@@H](CCCCN)C(=O)O)CSC5C)CSC3C)C(C)C)CSC2C)N[C@@H](CC(C)C)C(=O)NC1=O (stereo not given in full)
5 | 1.13 µg/mL (≈ 0.34 µM) |  | C=C1NC(=O)CC[C@@H](C(=O)O)NC(=O)[C@H](NC(=O)[C@H](CCCCN)NC(=O)[C@@H](N)Cc2c[nH]c3ccccc23)CSC[C@@H](C(=O)N[C@@H]2C(=O)N3CCC[C@H]3C(=O)NCC(=O)N[C@H](C(=O)N[C@H](C(=O)N[C@@H]3C(=O)NCC(=O)N[C@@H](C)C(=O)N[C@@H](CC(C)C)C(=O)N[C@@H](CCC(N)=O)C(=O)N/C(=C/C)C(=O)N[C@H](C(=O)N[C@@H](Cc4ccccc4)C(=O)N[C@@H](CC(C)C)C(=O)N[C@@H](CCC(N)=O)C(=O)N[C@@H]4C(=O)N[C@@H](CC(C)C)C(=O)N[C@H]5C(=O)N[C@@H](CSC4C)C(=O)NC(=O)[C@H](CC(N)=O)N[C@H](C(=O)N[C@@H](CCCCN)C(=O)N[C@H](C(=O)NC(=C)C(=O)N[C@@H](CCCCN)C(=O)O)[C@@H](C)CC)CSC5C)CSC3C)C(C)C)CSC2C)N[C@@H](CC(C)C)C(=O)NC1=O (stereo not given in full) [SUBTILIN]
